Reference: patent publication US3956291A, “7-Thioacetamido cephalosporanic acid derivatives” (American Home Products Corporation, priority 1974, dated 1976)
≈ marks a conversion by molar mass, not a printed value. Where two headings read alike, the source gives them in different places.

Tests used:
Assay in all cases: agar serial dilution test, minimum inhibitory concentration
Type in all cases: cell-based
bacillus subtilis = details: BA SU strain 6633; for MIC: Bacillus subtilis
Text: (§1) The compounds of this invention are useful for the treatment of bacterial infections amenable to treatment by cephalosporins. […] In accordance with the results obtained with the antibacterial compounds of this invention, their usefulness is established in the fields of comparative pharmacology and microbiology for the purpose of inhibiting the growth of undesirable bacterial colonies. […]

Staphylococcus aureus = details: for MIC: Staphylococcus aureus
Text: as §1

proteus vulgaris = test system: proteus vulgaris
Text: as §1

bordetella brochiseptica = details: BO BR strain 4617
Text: as §1

neisseria catarrhalis = test system: neisseria catarrhalis
Text: as §1

salmonella paratyphi = details: Salmonella enterica, read-out: Minimum Inhibitory Concentration
Text: as §1

klebsiella pneumoniae = test system: klebsiella pneumoniae
Text: as §1

escherichia coli = test system: escherichia coli
Text: as §1

herellea species = details: HE SP strain 9955
Text: (§2) The compounds of this invention are useful for the treatment of bacterial infections amenable to treatment by cephalosporins. […] In accordance with the results obtained with the antibacterial compounds of this invention, their usefulness is established in the fields of comparative pharmacology and microbiology for the purpose of inhibiting the growth of undesirable bacterial colonies.
(§3) The nmr spectra described in the following examples pertains to the spectra obtained upon exchanging acidic hydrogens with deuterium and are described in ppm (δ). The small amount of water and/or solvent carried into the products is readily removed by gently heating the material under vacuum. […]

pseudomones aeruginosa = details: PS AE strain 10145
Text: as §2, §3

[1] = PR VU strain 6896, read-out: Minimum Inhibitory Concentration
[2] = NE CA strain 8193, read-out: Minimum Inhibitory Concentration
[3] = read-out: Minimum Inhibitory Concentration
[4] = KL PN strain 10031, read-out: Minimum Inhibitory Concentration

Row | SMILES | Minimum Inhibitory Concentration (bacillus subtilis) | Minimum Inhibitory Concentration (Staphylococcus aureus; ST AU strain 6538P) | Minimum Inhibitory Concentration (Staphylococcus aureus; ST AU strain Smith) | MIC (proteus vulgaris; [1]) | MIC (bordetella brochiseptica) | MIC (neisseria catarrhalis; [2]) | MIC (bacillus subtilis) | MIC (salmonella paratyphi) | MIC (klebsiella pneumoniae; [3]) | MIC (escherichia coli; ES CO strain 920) | MIC (escherichia coli; ES CO strain 9637) | MIC (Staphylococcus aureus; ST AU strain 53-180) | MIC (Staphylococcus aureus; ST AU strain 6538P) | MIC (Staphylococcus aureus; ST AU strain CHP) | MIC (Staphylococcus aureus; ST AU strain Smith) | MIC (proteus vulgaris; [3]) | MIC (neisseria catarrhalis; [3]) | MIC (klebsiella pneumoniae; [4]) | MIC (herellea species) | MIC (pseudomones aeruginosa)
1 | CC(=O)OCC1=C(C(=O)O)N2C(=O)C(NC(=O)CSC(SCC#N)=C(C#N)S(C)(=O)=O)C2SC1 (stereo not shown) [Example 11, 7-[2-(2-Cyano-1-cyanomethylthio-2-methylsulfonylethenylthio)acetamido]cephalosporanic acid] | 15.6 micrograms per milliliter | 250 micrograms per milliliter | 250 micrograms per milliliter |  |  |  |  |  |  |  |  |  |  |  |  |  |  |  |  | 
2 | CCOC(=O)CSC(=NC#N)SCC(=O)N[C@@H]1C(=O)N2C(C(=O)O)=C(COC(C)=O)CS[C@H]12 [Example 12, 7-[2-[(cyanoimino)(2-ethoxy-2-oxoethylthio)methylthio]acetamido]cephalosporanic acid] |  |  |  | 62.5 µg/mL (≈ 121 µM) | 250 µg/mL (≈ 484 µM) | 62.5 µg/mL (≈ 121 µM) | 0.122 µg/mL (≈ 0.236 µM) | 31.3 µg/mL (≈ 60.6 µM) | 31.3 µg/mL (≈ 60.6 µM) | 250 µg/mL (≈ 484 µM) | 250 µg/mL (≈ 484 µM) | 1.95 µg/mL (≈ 3.77 µM) | 0.976 µg/mL (≈ 1.89 µM) | 3.9 µg/mL (≈ 7.55 µM) | 0.488 µg/mL (≈ 0.945 µM) |  |  |  |  | 
3 | CC(=O)OCC1=C(C(=O)O)N2C(=O)[C@@H](NC(=O)CSC(=NC#N)SCc3ccc([N+](=O)[O-])cc3)[C@H]2SC1 [Example 13, 7-[2-[(cyanoimino)(4-nitrophenylmethylthio)methylthio]acetamido]cephalosporanic acid] |  |  |  |  | 125 µg/mL (≈ 221 µM) |  | 0.488 µg/mL (≈ 0.863 µM) | 62.5 µg/mL (≈ 110 µM) |  |  | 250 µg/mL (≈ 442 µM) | 3.9 µg/mL (≈ 6.9 µM) | 1.95 µg/mL (≈ 3.45 µM) | 3.9 µg/mL (≈ 6.9 µM) | 1.95 µg/mL (≈ 3.45 µM) | 62.5 µg/mL (≈ 110 µM) | 62.5 µg/mL (≈ 110 µM) | 250 µg/mL (≈ 442 µM) |  | 
4 | CC(=O)OCC1=C(C(=O)O)N2C(=O)[C@@H](NC(=O)CSC(=NS(C)(=O)=O)SCC#N)[C@H]2SC1 [Example 14, 7-[2-[(cyanomethylthio)(methylsulfonylimino)methylthio]acetamido)cephalosporanic acid] |  |  |  | 31.3 µg/mL (≈ 59.9 µM) | 62.5 µg/mL (≈ 120 µM) | 125 µg/mL (≈ 239 µM) | 0.244 µg/mL (≈ 0.467 µM) | 15.6 µg/mL (≈ 29.9 µM) |  | 125 µg/mL (≈ 239 µM) | 125 µg/mL (≈ 239 µM) | 7.81 µg/mL (≈ 14.9 µM) | 1.95 µg/mL (≈ 3.73 µM) | 7.81 µg/mL (≈ 14.9 µM) | 1.95 µg/mL (≈ 3.73 µM) |  |  | 31.3 µg/mL (≈ 59.9 µM) | 250 µg/mL (≈ 478 µM) | 125 µg/mL (≈ 239 µM)
5 | CC(=O)OCC1=C(C(=O)O)N2C(=O)[C@@H](NC(=O)CSC(=NC#N)SCC(=O)O)[C@H]2SC1 [Example 15, 7-[2-[(cyanoimino)(2-hydroxy-2-oxoethylthio)methylthio]acetamido]cephalosporanic acid] |  |  |  |  |  |  | 1.95 µg/mL (≈ 3.99 µM) | 125 µg/mL (≈ 256 µM) |  |  |  |  | 15.6 µg/mL (≈ 31.9 µM) | 62.5 µg/mL (≈ 128 µM) | 7.81 µg/mL (≈ 16 µM) | 125 µg/mL (≈ 256 µM) |  | 250 µg/mL (≈ 512 µM) |  | 
6 | CC(=O)OCC1=C(C(=O)O)N2C(=O)[C@@H](NC(=O)CSC(=NC#N)SCc3cccc(Cl)c3)[C@H]2SC1 [Example 16, 7-[2-[(3-chlorophenylmethylthio) (cyanoimino)methylthio]acetamido]cephalosporanic acid] |  |  |  | 125 µg/mL (≈ 225 µM) | 250 µg/mL (≈ 450 µM) | 125 µg/mL (≈ 225 µM) | 0.122 µg/mL (≈ 0.22 µM) | 31.3 µg/mL (≈ 56.4 µM) |  | 250 µg/mL (≈ 450 µM) | 250 µg/mL (≈ 450 µM) | 3.9 µg/mL (≈ 7.03 µM) | 0.976 µg/mL (≈ 1.76 µM) | 1.95 µg/mL (≈ 3.51 µM) | 1.95 µg/mL (≈ 3.51 µM) |  |  | 125 µg/mL (≈ 225 µM) |  | 
7 | C#CCSC(=NC#N)SCC(=O)N[C@@H]1C(=O)N2C(C(=O)O)=C(COC(C)=O)CS[C@H]12 [Example 17, 7-[2-[(cyanoimino) (2-propynylthio)methylthio]acetamido]cephalosporanic acid] |  |  |  | 62.5 µg/mL (≈ 133 µM) |  | 125 µg/mL (≈ 267 µM) | 0.122 µg/mL (≈ 0.26 µM) | 7.81 µg/mL (≈ 16.7 µM) | 7.81 µg/mL (≈ 16.7 µM) | 62.5 µg/mL (≈ 133 µM) | 31.3 µg/mL (≈ 66.8 µM) | 3.9 µg/mL (≈ 8.32 µM) | 0.488 µg/mL (≈ 1.04 µM) | 3.9 µg/mL (≈ 8.32 µM) | 0.488 µg/mL (≈ 1.04 µM) |  |  |  |  | 
8 | CC(=O)OCC1=C(C(=O)O)N2C(=O)[C@@H](NC(=O)CSC(=NC#N)SCc3ccc(Cl)cc3)[C@H]2SC1 [Example 18, 7-[2-[(4-Chlorophenylmethylthio) (cyanoimino)methylthio]acetamido]cephalosporanic acid] |  |  |  | 62.5 µg/mL (≈ 113 µM) | 125 µg/mL (≈ 225 µM) | 250 µg/mL (≈ 450 µM) | 0.488 µg/mL (≈ 0.879 µM) | 31.3 µg/mL (≈ 56.4 µM) |  | 250 µg/mL (≈ 450 µM) | 250 µg/mL (≈ 450 µM) | 3.9 µg/mL (≈ 7.03 µM) | 1.95 µg/mL (≈ 3.51 µM) | 7.81 µg/mL (≈ 14.1 µM) | 1.95 µg/mL (≈ 3.51 µM) |  |  | 125 µg/mL (≈ 225 µM) |  | 
9 | C=CCSC(=NC#N)SCC(=O)N[C@@H]1C(=O)N2C(C(=O)O)=C(COC(C)=O)CS[C@H]12 [Example 19, 7-[2-[(cyanoimino)(2-propenylthio)methylthio]acetamido]cephalosporanic acid] |  |  |  |  | 125 µg/mL (≈ 266 µM) | 250 µg/mL (≈ 531 µM) | 0.488 µg/mL (≈ 1.04 µM) | 31.3 µg/mL (≈ 66.5 µM) |  | 250 µg/mL (≈ 531 µM) | 250 µg/mL (≈ 531 µM) | 3.9 µg/mL (≈ 8.29 µM) | 1.95 µg/mL (≈ 4.14 µM) | 7.81 µg/mL (≈ 16.6 µM) | 1.95 µg/mL (≈ 4.14 µM) | 31.3 µg/mL (≈ 66.5 µM) |  | 125 µg/mL (≈ 266 µM) |  | 
